Read-outs that look alike come from different tables or passages of the source.

Common to all, as to format: cell-based
The test system of one series is AVA5 cells. The series is described as follows: Cytotoxicity by neutral red dye uptake after 3 days of treatment. On the procedure: (§1) The antiviral activity of Compounds I-8 and I-9 was assessed in a 3-day assay using the stably-expressing HCV replicon cell lines, AVA5 (sub-genomic CONI, genotype 1b) and APC103 (genomic H77, genotype la) maintained as sub -confluent cultures on 96-well plates. Antiviral activity was determined by blot hybridization analysis of intracellular HCV RNA (normalized to the level of cellular B-actin RNA in each culture sample). A 3-fold suppression of HCV RNA and less than 2-fold suppression of cellular B-actin RNA was used as the cutoff. Cytotoxicity was assessed by neutral red dye uptake after 3 days of treatment. Dose response inhibition of HCV was also determined (FIG. 6). The nucleoside analogue 2′C-methyl cytidine (2′CmeC) was used as an assay activity control. EC50, EC90 and CC50 values (+/− standard deviations [S.D.]) were calculated by linear regression analysis. EC50 and EC90 are drug concentrations at which a 2-fold, or a 10-fold depression of intracellular HBV DNA or HCV RNA (relative to the average levels in untreated cultures), respectively, was observed. CC50 is the drug concentration at which a 2-fold lower level of neutral red dye uptake (relative to the average levels in untreated cultures) was observed.

The test system of another series is APC103 cells. The series is described as above. On the procedure: as §1
The subject of series [1] is HCV replicon cell line AVA5 (sub-genomic CONI, genotype 1b). The series is described as follows: Anti-HCV activity, 3-day HCV replicon assay, blot hybridization of intracellular HCV RNA. To be noted: for EC50: 2-fold depression of intracellular HCV RNA. The protocol: as §1
Series [2] deals with HCV replicon cell line APC103 (genomic H77, genotype la). Described as above. The following applies: for EC50: read-out: EC50 (μM ± SD); for EC90: 10-fold depression of intracellular HCV RNA. The protocol: as §1
The test system of another series is HCV replication. The series can be described thus: Effect of combination treatments on HCV replication (CalcuSyn analysis). On the set-up: key to Type of Interaction: S, synergistic. To be noted: for EC50 / EC90: Hepatitis C virus; for EC50: read-out: Compound I-9 EC50; for EC90: read-out: Compound I-9 EC90. From the text:
Compound I-9 was utilized in combination treatments with interferon (with and without RBV), and several representative STAT—C agents including 2′CmeC (nucleoside analogue), HCV-796 (non-nucleoside polymerase inhibitor), and VX-950 (protease inhibitor) (Table 13). For these studies, the compounds were mixed at equipotent (not necessarily equimolar) concentrations based on the monotherapy EC90 values. For example, 2′CmeC and Compound I-9 were mixed at equal molar concentrations, while 10-fold more Compound I-9 was used relative to VX-950 in that combination. The mixtures were then serially diluted for dose response analysis keeping the molar ratios constant. Corresponding monotherapies were also included. # Ribavirin (RBV) was held at a constant concentration of 30 uM for all serial dilutions of this combination. The overall type of interaction as determined by analysis with CalcuSyn (Biosoft, Inc.; Cambridge, UK) for each combination is indicated next to the corresponding EC50 and EC90 values in Table 13.
Analysis of combination therapies was performed using Calcusyn™ software (Biosoft, Inc.; Cambridge, UK). Two types of evaluations were performed (see FIG. 7). The top panels of FIG. 5 present CI-Fa (Combination Index—Fraction (of virus) affected) plots). For these plots, a combination index [CI] greater than 1.0 indicates antagonism and a CI less than 1.0 indicates synergism. Evaluations of synergy, additivity (summation), or antagonism at different levels of virus inhibition (e.g. […] (Fa=0.5) to 99% (Fa=0.99)) were performed and are provided by the plotted lines and points. Dotted lines denoting 1.96 standard deviations for significance evaluations can be added but are not included in this example for clarity of presentation. The bottom panels present conservative isobolograms. […] Three lines radiating out from the axes denote the expected (e.g., additive) EDC50, EDC75, and EDC90 values for drug combinations as calculated from the monotherapies. ED50, ED75, and ED90 values for the combinations that plot to the left (e.g., less than) of the corresponding lines indicate synergy, and values plotting to the right (e.g., greater than) of the corresponding lines indicate antagonism.

The nature of series [3]: Cytotoxicity by neutral red dye uptake after 3 days of treatment. The following applies: human. On the procedure: as §1
Where [4] appears, read: combination with 2′CmeC, molar ratio 1:1.
The mark [5] stands for this setting: combination with HCV-796, molar ratio 1:100.
Setting [6] is: combination with IFN + 30 μM RBV (RBV held constant), molar ratio 1:1.
The mark [7] stands for this setting: combination with IFN, molar ratio 1:1.
Setting [8] is: combination with VX-950, molar ratio 1:10.

The term CC50 denotes the concentration that lowers cell viability or growth by half. What is called EC50 is the concentration that produces a half-maximal response. For orientation: EC90 means the point of the concentration-response curve where the effect stands at 90%. As for `C[C@@]1(O)[C@H](O)[C@@H](CO)O[C@H]1n1ccc(N)nc1=O` [2′CmeC, 2′C-methyl cytidine, reference compound], the CC50 in the series with AVA5 cells and in the series with APC103 cells was greater than 300 µM each time. In addition, the “SI (CC50/EC50)” value was greater than 150 in series [1] (AVA5) and greater than 136 in series [2] (APC103). Moreover, the EC50 was found to be 2 ± 0.1 µM in series [1] (AVA5) and 5.8 ± 0.4 µM in series [2] (APC103, 2-fold depression of intracellular HCV RNA). In addition, the EC90 in series [1] (AVA5, 10-fold depression of intracellular HCV RNA, read-out: EC90 (μM ± SD)) was 2.2 ± 0.2 µM; in series [2] (APC103), 6.4 ± 0.6 µM.
As to `CC(C(=O)Nc1cccc(Oc2ccccc2)c1)n1sc2ccccc2c1=O` (stereo not shown) [Compound I-9], the EC50 in the series with HCV replication (None (monotherapy)) was 2600 ± 200 nM; with HCV replication (setting [4]), 700 ± 100 nM; in the series on HCV replication (setting [5]), 100 ± 10 nM; in the series on HCV replication (setting [6]), 200 ± 30 nM; in the series on HCV replication (setting [7]), 300 ± 30 nM; in the series with HCV replication (setting [8]), 300 ± 20 nM. The EC50 came to 2.4 ± 0.2 µM in series [1] (Hepatitis C virus, AVA5) and 8.5 ± 0.6 µM in series [2] (Hepatitis C virus). Further, the 90% effect concentration (EC90) with HCV replication (None (monotherapy)) was 9100 ± 500 nM; in the series on HCV replication (setting [4]), 1800 ± 200 nM; in the series on HCV replication (setting [5]), 400 ± 30 nM; in the series with HCV replication (setting [6]), 700 ± 100 nM; with HCV replication (setting [7]) it was 1000 ± 100 nM; in the series with HCV replication (setting [8]), 700 ± 100 nM. For the same molecule, the concentration for an effect of 90% (EC90) in series [1] (Hepatitis C virus, Ava5, read-out: EC90 (μM ± SD)) is 2.8 ± 0.3 µM; in series [2] (Hepatitis C virus, APC103), 9 ± 1 µM. The “Type of Interaction” value with HCV replication (setting [4]), with HCV replication (setting [5]), with HCV replication (setting [6]), in the series on HCV replication (setting [7]) and with HCV replication (setting [8]) was “S” throughout. Besides, in the series on HCV replication (with interferon, ribavirin, and the STAT-C agents), the “Interaction in combination treatments” value was “interacted favorably”. Moreover, the half-maximal cytotoxic concentration (CC50) at 3 days in series [3] (APC103) and in series [3] (AVA5) was greater than 100 µM each time. Besides, the figures for the “SI (CC50/EC50)” value in series [1] (AVA5) and in series [2] (APC103) were greater than 42 and greater than 35, respectively.

Values taken from patent US9040715B2 (priority 2008, dated 2015).
